Assay results from patent US20250221963A1 (GH RESEARCH IRELAND LIMITED, priority 2022, published 2025).
“And” between values parts separate entries of the source, which are not always exact repeats. Equal values may be shown once.

Columns and labels:
[1] = tested on: Salmonella typhimurium TA98, TA100, TA1535 and TA1537; experiment: Bacterial mutation test, Salmonella typhimurium; format: cell-based; details: up to 5000 μg/plate, absence and presence of S-9
Method: These conditions included treatments at concentrations up to 5000 μg/plate (the maximum recommended concentration according to current regulatory guidelines), in the absence and in the presence of a rat liver metabolic activation system (S-9).

[2] = tested on: patients with postpartum depression (PPD); experiment: Clinical trial of inhaled 5-MeO-DMT in postpartum depression; details: PPD patient
Method: The single-arm, open-label clinical trial will involve 15 adult female patients with clinically diagnosed postpartum depression (PPD).
The second dose (12 mg) will only be administered if: • a. […] The 6 mg dose was safe and well-tolerated according to the investigator, • c. Any psychoactive effects (PsE) of the prior dose have subsided, and • d. Pre-dose vital parameters and forced expiratory volume in one second (FEV1) are in normal range, or if outside of the normal range, are not clinically significant according to the investigator. • 3. Similarly, a third dose (18 mg) will only be administered if: • a. […] The 12 mg dose was safe and well-tolerated according to the investigator, and • c. Any PsE of the prior dose have subsided, and • d. Pre-dose vital parameters and forced expiratory volume in one second (FEV1) are in normal range, or if outside of the normal range, are not clinically significant according to the investigator.
The patients will be assessed for a peak psychedelic experience (based on a patient-scored visual analogue scale, the PE scale), sedation, and other endpoints after dosing. Follow-up visits are planned for Day 1, and Day 7 after the dosing day.
The following criteria must be met by all patients considered for clinical trial participation: • 1. Is female and in the age range between 18 and 45 years (inclusive) at screening. • 2. Has a body mass index (BMI) in the range of 18.5 and 35 kg/m^2 (inclusive) at screening. • 3. Meets the trial criteria for PPD as assessed by a trial psychiatrist or registered psychologist: • a. Diagnosis of Major Depressive Disorder without psychotic features, confirmed by the Mini-International Neuropsychiatric Interview (MINI), with peri-partum onset that began no earlier than gestation and no later than the first 4 weeks postpartum. • b. Has a Montgomery-Åsberg Depression Rating Scale (MADRS) total score of equal to or greater than 28 at screening and pre-dose on Day 0. • 6. […] Patients must have a negative pregnancy test at screening and on the pre-test day (Day −1). • 5. Is willing to delay start of other antidepressant or anxiety medication until after the end of the trial at Day 7 and agrees to keep any psychotherapy unchanged during the trial.
A potential patient who meets any of the following key exclusion criteria will be excluded from participation in this trial: • 1. Has, based on history, psychiatric assessment, and evaluation of the MINI, a current or prior diagnosis of bipolar disorder, a manic or hypomanic episode, a psychotic disorder, Major Depressive Disorder (MDD) or other mood disorder with psychotic features, obsessive compulsive disorder, post-traumatic stress disorder (PTSD), autism spectrum disorder, borderline personality disorder, schizophrenia, delusional disorder, paranoid personality disorder, schizoaffective disorder, clinically significant intellectual disability, or any other psychiatric comorbidity that renders the patient unsuitable for the trial according to the investigator's judgment. • 2. Has one or more first or second degree relatives with a current or previously diagnosed bipolar disorder, psychotic disorder or other mood disorder (including MDD) with psychotic features. • 3. Is in the judgement of a trial psychiatrist or registered psychologist, at significant risk for suicide based on history, psychiatric assessment, and evaluation of suicidal ideation and suicidal behaviour based on the Columbia-Suicide Severity Rating Scale (C-SSRS). • 4. Has taken anti-depressive medication within 14 days or 5 half-lives (whichever is longer) prior to dosing (exception: within the last 5 weeks in the case of fluoxetine). • 5.

Q: Which Induction of mutation [1] does the source give for `COc1ccc2[nH]cc(CCN(C)C)c2c1` [5-MeO-DMT] here?
A: did not induce mutation

Q: What about the “BIMF Adjustment Δ (Day 7)” value [2] of the same molecule?
A: 1

Q: What about the “BIMF Infant Care Δ (Day 7)” value [2] of the same molecule?
A: 0

Q: And the “BIMF Management Δ (Day 7)” value [2]?
A: 5

Q: What about the “BIMF Mother-Child Interaction Δ (Day 7)” value [2] of the same molecule?
A: 2

Q: What about the “BIMF Psychological Well-being Δ (Day 7)” value [2] of the same molecule?
A: 9

Q: What about the “BIMF Self-Care Δ (Day 7)” value [2] of the same molecule?
A: 4

Q: What about the “BIMF Social Support Δ (Day 7)” value [2] of the same molecule?
A: 1

Q: And the “BIMF TOTAL Δ (Day 7)” value [2]?
A: 13

Q: And the “ECG (3 hours), safety laboratory analyses (7 days), CADSS (3 hours, 1 day, 7 days)” value [2]?
A: unremarkable

Q: And the “MADRS response and MADRS remission criteria” value [2]?
A: fulfilled standard criteria for MADRS response

Q: And the “Reported adverse events (cramping left abdominal pain and headache, Day 0)” value [2]?
A: mild, short-lasting and resolved spontaneously

Q: And the “Time to clinical remission after administration according to the IDR” value [2]?
A: ≤ 2 h

Q: And the “Tolerability of the inhalation procedure” value [2]?
A: well tolerated with no inhalation-related adverse events

Q: What about the “Total MADRS improvement” value ([2]; 2 hr) of the same molecule?
A: 24

Q: And the “Total MADRS score” value ([2]; 2 hr, baseline 29)?
A: 5

Q: What about the “BPRS Tension improvement” value ([2]; Day 1) of the same molecule?
A: 5

Q: What about the “Total MADRS improvement” value ([2]; Day 1) of the same molecule?
A: 29

Q: What about the “Total MADRS score” value ([2]; Day 1, baseline 29) of the same molecule?
A: 0

Q: What about the “BIMF Adjustment % Improvement” value ([2]; Day 7) of the same molecule?
A: 20.00%

Q: What about the “BIMF Infant Care % Improvement” value ([2]; Day 7) of the same molecule?
A: 0.00%

Q: What about the “BIMF Management % Improvement” value ([2]; Day 7) of the same molecule?
A: 18% and 17.86%

Q: What about the “BIMF Mother-Child Interaction % Improvement” value ([2]; Day 7) of the same molecule?
A: 13.33%

Q: What about the “BIMF Psychological Well-being % Improvement” value ([2]; Day 7) of the same molecule?
A: 20.45%

Q: And the “BIMF Self-Care % Improvement” value ([2]; Day 7)?
A: 44% and 44.44%

Q: What about the “BIMF Social Support % Improvement” value ([2]; Day 7) of the same molecule?
A: 5.88%

Q: And the “BIMF total score improvement” value ([2]; Day 7)?
A: 14%

Q: What about the “Total MADRS improvement” value ([2]; Day 7) of the same molecule?
A: 28

Q: And the “BIMF functional domain Adjustment score” value ([2]; Day 7, Day 0 score 5, maximum 12)?
A: 6

Q: What about the “BIMF item 6 (people in my life that I can trust to care for my baby) score” value ([2]; Day 7, Day 0 score 6) of the same molecule?
A: 6

Q: And the “BIMF functional domain Self-Care score” value ([2]; Day 7, Day 0 score 9, maximum 18)?
A: 13

Q: What about the “BIMF functional domain Infant Care score” value ([2]; Day 7, Day 0 score 12, maximum 12) of the same molecule?
A: 12

Q: And the “BIMF functional domain Mother-Child Interaction score” value ([2]; Day 7, Day 0 score 15, maximum 18)?
A: 17

Q: What about the “BIMF functional domain Social Support score” value ([2]; Day 7, Day 0 score 17, maximum 18) of the same molecule?
A: 18

Q: What about the “BIMF functional domain Management score” value ([2]; Day 7, Day 0 score 28, maximum 36) of the same molecule?
A: 33

Q: And the “BIMF functional domain Psychological Well-being score” value ([2]; Day 7, Day 0 score 44, maximum 60)?
A: 53

Q: And the “Total MADRS score” value ([2]; Day 7, baseline 29)?
A: 1

Q: What about the “BPRS Tension improvement” value ([2]; Discharge) of the same molecule?
A: 5

Q: And the “Changes in vital parameters” value ([2]; shortly after administration)?
A: temporary, clinically non-relevant increase in heart rate and blood pressure
